{"source": "patent US7947280B2", "about": "(priority 2003, dated 2011)", "key": {"[1]": {"tested_on": "mice with experimentally induced heart failure", "conditions": "Pyr-apelin-13 2 mg/kg/day; between weeks 1 and 3; n=6", "procedure": "Left anterior decending artery ligation. Animals were anesthetized with 2-3% inhalational isofluorane and 50 mg/kg sodium pentobarbital intraperitoneally. […] The animals were placed in the left lateral decubitus position and a thoracotomy performed at the 4th intercostal space. Peak inspiratory pressures were monitored and maintained between 10-14 cm of water. The lung was retracted and the pericardium incised. The left coronary artery was ligated with a 7-0 prolene suture until blanching of the distal left ventricle was noted. Heart rate and temperature were monitored during the procedure. After ascertaining complete hemostasis, the chest wall was closed in four layers. The animals were weaned from the ventilator and anesthetic and then extubated and monitored in the recovery area.\nTreadmill exercise. […] In mice, a commonly used commercially available setup (Columbus Instruments) employs a moving belt encased in a sealed Plexiglas enclosure, allowing for measurement of oxygen consumption and carbon dioxide production. Stimulus devices consist of a metal shock grid. Metabolic measurements are performed using an open circuit volumetric gas analysis system (Oxymax System; Columbus Instruments). The low dead space of this circuit allows quick gas equilibration with a t1/2 of 30 s, which is highly suitable for use during graded exercise protocols. […]"}, "ApoE-KO mice [2]": {"tested_on": "ApoE-KO mice", "test": "Atherosclerotic lesion analysis in ApoE-KO mice", "format": "in vivo, mouse", "conditions": "for reduction of total lesion burden: co-infusion of Apelin 2 mg/kg/day with AngII 1.4 mg/kg/day", "procedure": "Animals. Mice were maintained in temperature-controlled (20° C. to 22° C.) environment with a 12-hour light-dark cycle. […] All mice were C57BL/6J ApoE-KO male mice (Jackson Laboratories, Bar Harbor, […].) between the ages of 8-12 weeks. […] Animal procedures were carried out in accordance with the Institutional Review Board Guidelines at Stanford University.\nTissue preparation, histology and lesion quantification. Mice were euthanized 28 days following implantation of osmotic mini-pumps. The thoracic cage was removed and the animal perfused with phosphate buffered saline solution (PBS) for 2 minutes. The entire aorta and vein graft were exposed and the periadventitial tissue and scar tissue dissected and removed. Subsequently mice were perfusion fixed in situ with 4% phosphate-buffered paraformaldehyde. In some animals aorta and lung were removed fresh for biochemical assays.\nAtherosclerotic Lesion Analysis Atherosclerosis lesion area was determined as described previously. Briefly, the arterial tree was perfused with PBS (pH 7.3) and then perfusion fixed with phosphate-buffered paraformaldehyde (3%, pH 7.3). The heart and full length of the aorta-to-iliac bifurcation was exposed and dissected carefully from any surrounding tissues. Aortas were then opened along the ventral midline and dissected free of the animal and pinned out flat, intimal side up, onto black wax. Aortic images were captured with a digital camera (DMC1) mounted on a Leica MZ6 stereomicroscope and analyzed using Fovea Pro (Reindeer Graphics, Asheville, N.C.). Percent lesion area was calculated as total lesion area divided by total surface area."}, "ApoE-KO mice [3]": {"tested_on": "ApoE-KO mice", "test": "AngII induced abdominal aortic aneurysm formation model", "format": "in vivo, mouse", "procedure": "(§1) Animals. Mice were maintained in temperature-controlled (20° C. to 22° C.) environment with a 12-hour light-dark cycle. Sterile water and standard chow diet were available ad libitum. All mice were C57BL/6J ApoE-KO male mice (Jackson Laboratories, Bar Harbor, […].) between the ages of 8-12 weeks. […] Animal procedures were carried out in accordance with the Institutional Review Board Guidelines at Stanford University.\nAbdominal aortic aneurysm formation, sudden death and vein graft procedure. […] Abdominal aortic aneurysm was defined as ≧50% enlargement of the maximal abdominal aorta diameter. Mice that were found dead without any preceding signs of suffering were defined as sudden death."}, "ApoE-KO mice [4]": {"tested_on": "ApoE-KO mice", "test": "Vein graft neointimal hyperplasia model", "format": "in vivo, mouse", "procedure": "as §1"}, "[5]": {"tested_on": "superoxide production in aortic sections", "test": "Dihydroethidium oxidative fluorescence microtopography", "format": "in vivo, mouse", "procedure": "Oxidative fluorescent microtopography. Superoxide was detected in the layers of the vessel wall using fluorescent probe dihydroethidium as described previously. Fresh segments of upper descending thoracic aorta were frozen in OCT compound. […] Molecular Probes). Images were obtained on a confocal microscope (Bio-Rad MRC-1024 laser; filter settings: excitation filter 488 nm; emission filter 550 nm). 2-hydroxyethidium fluorescence was measured from high power (60× mag) images. Endothelium by quantifying fluorescence (intensity×area) on the luminal side of the internal elastic lamina, media between the internal and external elastic lamina, and adventitia outside the external elastic lamina. Quantification was performed using Image Pro Plus software (Media Cybernetics, Silver Springs, Md.). Medial Analysis was performed blind to the samples identity."}, "[6]": {"tested_on": "NFκB, NFAT, AP-1 and SRE reporter constructs", "test": "Luciferase reporter assays of AngII nuclear signaling in HEK-293 cells", "format": "cell-based", "excerpt": "cDNA Constructs APJ expression construct was purchased from cDNA.org. AT1R construct was obtained from Dr. Marc Caron. AT1R transcript was inserted into a pEGFP-N1 vector (Clonetech). The NF-kB and SRE luciferase reporter constructs were obtained from BD Biosciences.\nCells were immediately lysed."}, "AT1R": {"biological_target": "T1, AT1R (Rattus norvegicus, UniProt P25095)", "T1 construct": "expressed in transfected cells; host or cells: HEK-293", "T1 sequence (P25095 1-359)": "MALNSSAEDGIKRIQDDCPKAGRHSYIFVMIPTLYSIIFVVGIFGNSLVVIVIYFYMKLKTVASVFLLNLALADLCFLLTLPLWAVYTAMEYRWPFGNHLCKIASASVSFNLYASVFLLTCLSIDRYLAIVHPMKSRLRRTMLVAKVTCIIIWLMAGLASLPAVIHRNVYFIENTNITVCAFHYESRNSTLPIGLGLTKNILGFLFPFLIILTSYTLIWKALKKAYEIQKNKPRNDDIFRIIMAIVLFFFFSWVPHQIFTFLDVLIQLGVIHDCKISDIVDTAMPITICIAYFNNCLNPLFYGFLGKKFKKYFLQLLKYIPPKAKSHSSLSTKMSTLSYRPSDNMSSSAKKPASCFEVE", "test": "Competitive ligand binding with FAM-labeled AngII in HEK-293 cells", "conditions": "unlabeled ligand 100 nM; HEK-293 cells transfected with AT1R"}, "[7]": {"tested_on": "Erk1/2 phosphorylation in RASM", "conditions": "AngII stimulated RASM"}}, "note": "“Also recorded” adds a separate entry of the source.", "data": [{"substance": "apelin", "values": [{"measurement": "average time to exhaustion / exercise capacity", "setting": "[1]", "value": "marked, statistically significant increase"}, {"measurement": "reduction in aortic root atherosclerotic burden vs saline treated controls (trend)", "setting": "ApoE-KO mice [2]; apelin 2 mg/kg/day, 4 weeks", "value": 25, "unit": "%"}, {"measurement": "reduction of total lesion burden", "setting": "ApoE-KO mice [2]; 4 weeks", "value": "mitigated"}, {"measurement": "reduction of total lesion burden", "setting": "ApoE-KO mice [2]; 4 weeks, listed as Apelin", "value": 75, "unit": "%"}, {"measurement": "progression of atherosclerosis in aortic root (FIG. 17)", "setting": "ApoE-KO mice [2]; osmotic minipump during high fat diet exposure", "value": "do not alter"}, {"measurement": "animals with aneurysm formation", "setting": "ApoE-KO mice [3]; AngII plus apelin treatment", "value": "1/12"}, {"measurement": "incidence of AAA formation", "setting": "ApoE-KO mice [3]; apelin added to AngII infused mice", "value": 8, "unit": "%"}, {"measurement": "incidence of AAA formation within 4 weeks", "setting": "ApoE-KO mice [3]; single agent infusion", "value": "did not observe AAA formation"}, {"measurement": "reduction of mean vessel wall area", "setting": "ApoE-KO mice [4]; apelin added to AngII treated animals", "value": 34, "unit": "%"}, {"measurement": "reduction of mean vessel wall area vs saline treated controls", "setting": "ApoE-KO mice [4]; apelin, 4 weeks following vein graft surgery", "value": 42, "unit": "%"}, {"measurement": "aortic superoxide production vs AngII alone", "setting": "[5]; apelin added to AngII treated mice", "value": "significantly reduced"}, {"measurement": "Total aortic fluorescence, lower than saline treated controls", "setting": "[5]; apelin treated mice", "value": 3, "unit": "fold"}, {"measurement": "NFκB reporter activation stimulated by TNF-α and H2O2", "setting": "[6]; apelin treatment", "value": "In neither case did apelin diminish transcription; also recorded: not affected"}, {"measurement": "AngII induced increase in reporter transcription", "setting": "[6]; cells also treated with apelin", "value": "abrogated; also recorded: decreased activation"}, {"measurement": "competition for binding of FAM-AngII (10 nM) to AT1R", "setting": "AT1R", "value": "did not compete; also recorded: could not compete; also recorded: does not compete"}, {"measurement": "Erk1/2 phosphorylation", "setting": "[7]", "value": "decreased"}]}]}
